Results on eight molecules are retold here after article doi:10.1101/2025.11.06.686927v1 (biorxiv, 2025).

The test system of one data set is SH-SY5Y. The data set is described as follows: cells. The settings on record: Homo sapiens, 48 h, read-out: SHSY-5Y EC50. The arrangement: species or system RPE-1, HCT116, U2OS.
The target in a further data set is PIM1 (Homo sapiens, UniProt P11309). The data set is described as follows: biochemical. As to conditions: read-out: % of control remaining.
For data set [1], the target named is T1, DYRK1A (RnDYRK1A-kd) (Rattus norvegicus, UniProt Q63470). As to the kind of experiment: biochemical. As to conditions: read-out: % of control remaining.
The next data set concerns the target T2, HASPIN (Homo sapiens, UniProt Q8TF76).
T2 sequence (Q8TF76 1-798): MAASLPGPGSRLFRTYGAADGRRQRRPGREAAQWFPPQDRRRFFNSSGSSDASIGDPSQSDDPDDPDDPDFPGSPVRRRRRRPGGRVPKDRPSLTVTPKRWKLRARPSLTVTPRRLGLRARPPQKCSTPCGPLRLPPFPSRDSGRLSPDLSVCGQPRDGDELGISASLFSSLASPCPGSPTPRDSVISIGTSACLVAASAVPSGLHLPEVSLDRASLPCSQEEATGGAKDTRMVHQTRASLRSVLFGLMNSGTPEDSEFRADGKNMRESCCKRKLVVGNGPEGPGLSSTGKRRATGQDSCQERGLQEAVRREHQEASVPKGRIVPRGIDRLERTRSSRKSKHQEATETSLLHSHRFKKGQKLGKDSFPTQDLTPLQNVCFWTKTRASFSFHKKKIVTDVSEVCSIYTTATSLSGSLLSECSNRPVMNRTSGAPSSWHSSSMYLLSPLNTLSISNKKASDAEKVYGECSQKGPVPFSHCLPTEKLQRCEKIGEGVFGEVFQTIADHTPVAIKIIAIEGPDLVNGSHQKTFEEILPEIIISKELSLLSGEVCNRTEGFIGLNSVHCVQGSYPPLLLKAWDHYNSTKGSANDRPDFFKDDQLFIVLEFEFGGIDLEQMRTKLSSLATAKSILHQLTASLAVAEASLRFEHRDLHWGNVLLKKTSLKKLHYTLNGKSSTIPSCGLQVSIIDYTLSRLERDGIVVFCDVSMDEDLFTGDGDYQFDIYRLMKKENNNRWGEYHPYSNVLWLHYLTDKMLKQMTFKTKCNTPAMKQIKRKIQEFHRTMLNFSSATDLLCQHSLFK
The data set is described as follows: biochemical. The settings on record: read-out: % of control remaining.

The target in data set [2] is T3, CDK8-cyclin C (HsCDK8/Cyclin C) (Homo sapiens, UniProt P49336). The data set is described as follows: radiometric […]-ATP kinase assay, RBER-IRStide substrate. In kind it is biochemical.
T3 sequence (P49336 whole entry): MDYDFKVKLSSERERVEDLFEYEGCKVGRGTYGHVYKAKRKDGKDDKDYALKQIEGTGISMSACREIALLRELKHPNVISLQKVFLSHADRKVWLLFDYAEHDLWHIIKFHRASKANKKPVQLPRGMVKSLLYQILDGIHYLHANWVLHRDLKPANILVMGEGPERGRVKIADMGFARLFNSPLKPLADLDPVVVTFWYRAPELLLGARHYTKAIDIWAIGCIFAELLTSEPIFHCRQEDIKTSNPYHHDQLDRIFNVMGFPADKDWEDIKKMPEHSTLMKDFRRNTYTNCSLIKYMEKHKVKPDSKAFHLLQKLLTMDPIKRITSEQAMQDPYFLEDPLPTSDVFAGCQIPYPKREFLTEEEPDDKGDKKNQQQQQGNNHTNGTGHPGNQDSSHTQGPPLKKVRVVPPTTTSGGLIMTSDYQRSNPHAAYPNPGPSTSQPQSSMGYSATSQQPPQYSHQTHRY
T3 sequence (P24863 whole entry partner): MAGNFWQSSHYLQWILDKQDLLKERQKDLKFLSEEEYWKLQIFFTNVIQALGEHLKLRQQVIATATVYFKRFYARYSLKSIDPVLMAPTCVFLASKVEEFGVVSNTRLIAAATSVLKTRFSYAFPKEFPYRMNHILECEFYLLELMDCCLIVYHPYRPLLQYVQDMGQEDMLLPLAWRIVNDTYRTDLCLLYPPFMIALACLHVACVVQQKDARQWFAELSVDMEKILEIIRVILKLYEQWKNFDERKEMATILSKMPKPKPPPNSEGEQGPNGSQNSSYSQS
In a further data set the target is CDK5/P25 (Homo sapiens, UniProt Q00535). As to the kind of experiment: biochemical. As to conditions: read-out: % of control remaining.
CDK5/P25, sequence (Q00535 whole entry): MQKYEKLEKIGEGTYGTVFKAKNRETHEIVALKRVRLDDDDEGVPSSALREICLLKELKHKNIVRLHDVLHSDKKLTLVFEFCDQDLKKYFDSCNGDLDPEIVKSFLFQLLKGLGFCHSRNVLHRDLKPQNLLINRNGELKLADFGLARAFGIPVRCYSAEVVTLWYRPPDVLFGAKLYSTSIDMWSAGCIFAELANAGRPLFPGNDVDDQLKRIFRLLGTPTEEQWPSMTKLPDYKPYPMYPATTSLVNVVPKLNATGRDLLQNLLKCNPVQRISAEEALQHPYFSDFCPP
CDK5/P25, sequence (Q15078 whole entry partner): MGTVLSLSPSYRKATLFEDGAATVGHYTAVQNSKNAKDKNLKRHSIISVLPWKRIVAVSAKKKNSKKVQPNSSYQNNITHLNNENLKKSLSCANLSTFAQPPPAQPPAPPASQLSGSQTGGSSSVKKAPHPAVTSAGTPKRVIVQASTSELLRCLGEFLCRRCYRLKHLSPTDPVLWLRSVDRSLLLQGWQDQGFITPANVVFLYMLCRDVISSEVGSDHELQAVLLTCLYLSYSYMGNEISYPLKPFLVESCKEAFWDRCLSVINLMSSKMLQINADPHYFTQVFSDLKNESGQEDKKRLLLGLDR
A further data set can be described thus: in vitro. On the set-up: species or system HCT116, SH-SY5Y, U2OS. The settings on record: human, rpe-1 cells.
A further data set relates to U2OS. As to the kind of experiment: cells. The settings on record: Homo sapiens, 48 h, read-out: U2OS EC50. On the set-up: species or system RPE-1, HCT116, SH-SY5Y.
The target of data set [3] is T3, CDK8-cyclin C (HsCDK8/Cyclin C). The data set is described as follows: biochemical. The settings on record: read-out: % of control remaining.
Data set [4] has as its target T4, CLK1 (MmCLK1) (Mus musculus, UniProt P22518). The data set is described as follows: biochemical. As to conditions: read-out: % of control remaining.
In another data set the target is CDK2/cyclin A (Homo sapiens, UniProt P24941). As to the kind of experiment: biochemical. The settings on record: read-out: % of control remaining.
The next data set concerns HCT116. The data set is described as follows: cells. On the set-up: species or system RPE-1, SH-SY5Y, U2OS. As to conditions: Homo sapiens, HCT-116, 48 h, read-out: HCT116 EC50.
The target in data set [5] is T4, CLK1 (MmCLK1). The data set is described as follows: radiometric […]-ATP kinase assay, peptide GRSRSRSRSRSR
In kind it is biochemical. As to conditions: read-out: % residual activity at 10 μM.

For data set [6], the target named is T1, DYRK1A (RnDYRK1A-kd). The data set is described as follows: radiometric […]-ATP kinase assay, peptide KKISGRLSPIMTEQ
In kind it is biochemical. The settings on record: read-out: % residual activity at 10 μM.

pEC50, pIC50: −log10 of the molar value.

T4 sequence (P22518 whole entry): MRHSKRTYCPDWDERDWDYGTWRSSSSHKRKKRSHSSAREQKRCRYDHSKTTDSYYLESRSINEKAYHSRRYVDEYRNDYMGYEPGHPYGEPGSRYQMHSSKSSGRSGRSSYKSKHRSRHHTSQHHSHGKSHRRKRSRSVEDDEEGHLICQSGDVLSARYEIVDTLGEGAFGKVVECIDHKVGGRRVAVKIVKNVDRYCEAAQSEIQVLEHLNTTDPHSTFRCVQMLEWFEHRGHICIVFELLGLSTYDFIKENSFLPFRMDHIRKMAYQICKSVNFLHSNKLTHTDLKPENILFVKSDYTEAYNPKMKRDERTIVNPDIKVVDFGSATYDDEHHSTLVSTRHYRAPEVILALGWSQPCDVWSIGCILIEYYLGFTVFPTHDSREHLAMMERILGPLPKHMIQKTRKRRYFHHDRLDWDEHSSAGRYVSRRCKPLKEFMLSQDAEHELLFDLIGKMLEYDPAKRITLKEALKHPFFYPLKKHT
PIM1, sequence (P11309 whole entry): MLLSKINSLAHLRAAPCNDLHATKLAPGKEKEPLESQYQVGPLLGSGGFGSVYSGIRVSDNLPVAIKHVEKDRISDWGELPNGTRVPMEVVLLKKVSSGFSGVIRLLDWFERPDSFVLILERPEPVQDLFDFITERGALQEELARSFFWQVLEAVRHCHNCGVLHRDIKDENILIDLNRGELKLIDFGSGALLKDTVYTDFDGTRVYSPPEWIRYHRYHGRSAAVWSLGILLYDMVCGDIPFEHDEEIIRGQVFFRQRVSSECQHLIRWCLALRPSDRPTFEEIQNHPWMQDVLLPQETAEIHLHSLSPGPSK

With `Cc1ccc(NC(=O)Nc2ccc(Cc3ccncc3)cc2)cc1C` [compound 82, #82], the values for the pEC50 in the data set with SH-SY5Y, with U2OS and with HCT116 were 4.62, 5.00 and 4.51, respectively. Moreover, the remaining activity at 10 µM at PIM1 turned out to be 89%; at DYRK1A (RnDYRK1A-kd) [1], 134%; at HASPIN, 111%; at CDK5/P25, 109%; in [3] it was 19%; on CLK1 (MmCLK1) [4], 81%. Moreover, the remaining activity at 10 µM at CDK2/cyclin A was 120%. Also, the pIC50 in data set [2] was 8.30. Besides, the CC50 at 48 h in the data set “in vitro” is > 50 µM.
Consider `O=C(NC[C@H]1CC(=O)N(c2ccc3c(c2)OCO3)C1)Nc1cccc(C(F)(F)F)c1` [compound 75, #75], for which the pEC50 in the data set with SH-SY5Y, in the data set with U2OS and with HCT116 was < 4.30 throughout. The remaining activity at 10 µM on PIM1 was found to be 95%; on DYRK1A (RnDYRK1A-kd) [1], 89%; at HASPIN, 123%; on CDK5/P25, 101%; in data set [3], 8%; on CLK1 (MmCLK1) [4], 99%. Besides, the remaining activity at 10 µM at CDK2/cyclin A was found to be 106%. This molecule also gave a pIC50 in data set [2] of 7.30. Further, in the data set “in vitro”, the CC50 at 48 h was > 50 µM.
For `O=C(NC[C@@H]1Cc2cc(-c3cncnc3)ccc2O1)c1scc2c1CCCC2` [compound 47, #47], the pEC50 in the data set with SH-SY5Y, in the data set with U2OS and in the data set with HCT116 was < 4.30 each time. The remaining activity at 10 µM at PIM1 came out at 89%; at DYRK1A (RnDYRK1A-kd) [1], 75%; at HASPIN it was 118%; on CDK5/P25 it was 107%; in data set [3], 5%; on CLK1 (MmCLK1) [4], 109%. Also, the remaining activity at 10 µM on CDK2/cyclin A is 81%. In data set [2], this molecule showed a pIC50 of 6.70. In the data set “in vitro”, the CC50 at 48 h is > 50 µM.
Consider `O=C(Nc1ccc2oc(-c3cccnc3)nc2c1)c1ncoc1-c1ccccc1Cl` [compound 76, #76], for which the pEC50 in the data set with SH-SY5Y, in the data set with U2OS and in the data set on HCT116 was < 4.30 throughout. For the same molecule, the remaining activity at 10 µM on PIM1 was found to be 109%; on DYRK1A (RnDYRK1A-kd) [1] it was 80%; on HASPIN, 116%; at CDK5/P25 it was 89%; in [3], 11%; on CDK2/cyclin A, 73%. In addition, the remaining activity at 10 µM at CLK1 (MmCLK1) [5] is 37%. The negative-log IC50 (pIC50) in data set [2] is 7.00. In addition, the CC50 at 48 h in “in vitro” is > 50 µM.
Consider `N#Cc1ccc2ncnc(NCCc3ccccc3)c2c1` [Senexin A], for which the pEC50 was < 4.30 in the data set on SH-SY5Y, 4.32 in the data set on U2OS and < 4.30 in the data set with HCT116. Further, the remaining activity at 10 µM on DYRK1A (RnDYRK1A-kd) [6] was -7%; at PIM1 it was 78%; at CDK5/P25 it was 57%; in [3], 15%; at CDK2/cyclin A, 62%; at CLK1 (MmCLK1) [5] it was 34%. For the same molecule, the pIC50 in [2] is 7.52. The midpoint of cytotoxicity in the data set “in vitro”, the CC50 at 48 h, lay at 41 µM.
In the case of `O=C(Nc1ccc(Cc2ccncc2)cc1)Nc1cccc2ccccc12` [compound 22, #22], the results for the pEC50 with SH-SY5Y, in the data set on U2OS and in the data set with HCT116 were 4.39, 4.85 and 4.54, respectively. The remaining activity at 10 µM at PIM1 turned out to be 85%; on DYRK1A (RnDYRK1A-kd) [1] it was 83%; on HASPIN it was 96%; at CDK5/P25, 115%; in data set [3], 10%; at CLK1 (MmCLK1) [4], 151%. Moreover, the remaining activity at 10 µM at CDK2/cyclin A is 76%. Also, the pIC50 in data set [2] was 6.80. The same molecule registered a CC50 at 48 h in the data set “in vitro” of 10 µM.
With `O=C(CSc1ccc(-c2cccnc2)nn1)Nc1cccc(C(F)(F)F)c1` [compound 9, #9], the pEC50 in the data set on SH-SY5Y, in the data set with U2OS and in the data set on HCT116 was < 4.30 each time. Further, the remaining activity at 10 µM on PIM1 stood at 71%; on DYRK1A (RnDYRK1A-kd) [1], 80%; on HASPIN it was 94%; on CDK5/P25, 107%; in data set [3] it was 10%; on CLK1 (MmCLK1) [4], 111%. Moreover, the remaining activity at 10 µM on CDK2/cyclin A amounted to 78%. The pIC50 in [2] is 7.40. In the data set “in vitro”, the CC50 at 48 h is > 50 µM.
Consider `Cc1cccc(OCC(=O)Nc2ccc3oc(-c4cccnc4)nc3c2)c1C` [compound 45, #45], for which the pEC50 is 5.10 in the data set with SH-SY5Y, 5.05 in the data set on U2OS and 4.72 with HCT116. For the same molecule, the remaining activity at 10 µM at PIM1 was 127%; at DYRK1A (RnDYRK1A-kd) [1] it was 73%; at HASPIN, 144%; on CDK5/P25, 115%; in data set [3], 6%; on CLK1 (MmCLK1) [4] it was 143%. The remaining activity at 10 µM at CDK2/cyclin A turned out to be 82%. In data set [2], this molecule gave a pIC50 of 7.52. The molecule also showed a CC50 at 48 h in the data set “in vitro” of 43 µM.

In general, pEC50 refers to the EC50 on a negative log10 scale, so that one unit is a factor of ten. What is called pIC50 is −log10 of the IC50, conventionally taken in molar units. A lower pIC50 goes with a high IC50. Usually CC50 stands for the concentration at which the toxic effect on the cells reaches its halfway point. Higher therefore signals lower toxicity to the cells.
